Assay [1] concerns QHJ-I01 human iPS cell. Kind of assay: Corin-positive ratio by flow cytometry with anti-Corin antibody on Day 12 after preconditioning of iPS cells in medium for maintaining undifferentiated state. It is filed as cell-based. The settings on record: for Corin-positive ratio as compared with the control: summary of Table 1. How it is done:
QHJ-I01, which is a human iPS cell, has been produced by introducing of Oct3/4, Sox2, KIf4, L-MYC, LIN28, and a dominant-negative form of p53 (Okita, K., et al., Stem Cells, 31, 458-66 (2013); WO2013/176233) into human PBMC by an episomal vector. The cells were received from Professor Yamanaka of Kyoto University, et al.
The iPS cells were cultured according to the method described by Miyazaki T, et al., Nat Commun. 3: 1236, 2012. Specifically, maintenance culture was performed in a medium for maintaining undifferentiated state containing FGF2 (bFGF) on a 6-well plate coated with Laminin-511 E8.
24 hours before the start of differentiation induction by exchange with a differentiation medium, the medium was exchanged with StemFit AK03N (Ajinomoto Healthy Supply Co., Inc.), which was a medium for maintaining undifferentiated state containing SAG (Enzo Life Sciences, Inc., 300 nM), an SHH signal stimulant, to obtain a cell population comprising iPS cells.
The cell population comprising iPS cells after culturing for 24 hours in the presence of SAG as described above was dissociated using TrypLE CTS (Life Technologies), and the cells were inoculated on a 6-well plate coated with Laminin-511 E8 (iMatrix-511, Nippi, Inc.) prepared separately, in an amount of 5×10^6 cells per well. The medium was replaced with a differentiation medium [a basal medium A [GMEM (Invitrogen) supplemented with 8% KSR (Invitrogen), 1 mM Sodium pyruvate (Invitrogen), 0.1 mM MEM nonessential amino acid (Invitrogen), and 0.1 mM 2-Mercaptoethanol (WAKO)] containing 10 μM Y-27632 (WAKO), 0.1 μM LDN 193189 (Stemgent, Inc.), and 0.5 μM A83-01 (WAKO)]. On the next day (Day 1), the medium was replaced with Basal Medium A supplemented with 0.1 μM LDN193189, 0.5 μM A83-01, 2 μM Purmorphamine (WAKO), and 100 ng/mL FGF8 (WAKO). Two days later (Day 3), the medium was replaced with Basal Medium A supplemented with 0.1 μM LDN193189, 0.5 μM A83-01, 2 μM Purmorphamine, 100 ng/mL FGF8, and 3 μM CHIR99021 (WAKO). Four days later (Day 7), the medium was replaced with Basal Medium A supplemented with 0.1 μM LDN193189 and 3 μM CHIR99021. During the above period, the medium was replaced once a day. A flow cytometry analysis using an anti-Corin antibody was performed on the 12th day of the start of differentiation induction (Day 12) (FIG. 1).
An anti-Corin antibody was prepared by the following method. First, from the Corin gene of Macaca fascicularis, a gene sequence encoding a part of the extracellular domain (79th-453rd amino acids) was introduced into 293E cells, and the cells were then allowed to express the extracellular-domain fragment of Corin protein, followed by collecting the protein. Mice were immunized with the recovered protein, and lymphocytes were then extracted and fused with myeloma cells. From the cell population after the fusion, a clone having reactivity with Corin was selected. The culture supernatant of the clone was used after attaching a fluorescent label as the anti-Corin monoclonal antibody.
Five days after the culture in Basal Medium A supplemented with 0.1 μM of LDN193189 and 3 μM CHIR99021, namely on the 12th day of the start of differentiation induction (Day 12), the cells were dissociated using TrypLE CTS, and suspended in Ca^2+Mg^2+-free HBSS (Invitrogen) supplemented with 2% FBS, 10 μM Y-27632 (WAKO), 20 mM D-glucose, and 50 μg/mL penicillin/streptomycin. The anti-Corin antibody was added to the suspension, and the resulting mixture was incubated at 4° C. for 20 minutes, the cells were sorted using FACS (BD) to collect Corin-positive cells, and the cell number was counted.
Similar to Example 1, experiments in which the concentration of SAG added was changed, and experiments in which A83-01 or LDN 193189 was added at the same time with SAG, were conducted, and the Corin-positive ratio were measured.
A general note: In flow cytometry, cells or beads pass a laser one at a time.

The subject of assay [2] is LPF 11 human iPS cell. Kind of assay: Corin-positive ratio on Day 12, iPS cells generated by another method. It is filed as cell-based. To be noted: SAG 300 nM preconditioning vs absence of SAG, FIG. 4. The source says: LPF 11, a human iPS cell, has been established by introducing Oct3/4, Sox2, KIf4, and L-MYC into human PBMC by a Sendai virus vector (Cytotune 2.0 L, produced by ID Pharma Co., Ltd.), and culturing the same by the method according to the protocol published by Kyoto University (Establishment, maintenance culture of human iPS cells; CiRA Ff-iPSC_protocol_JP_v140310, //www.cira.kyoto-u.ac.jp/j/research/protocol.html) using StemFit medium (produced by Ajinomoto Healthy Supply Co., Inc. Inc.), and Laminin-511 E8 (produced by Nippi, Inc.).
Using this iPS cell, culturing and differentiation induction were carried out in the same manner as in Example 1 and the percentage of the number of Corin-positive cells with respect to the total cell number was measured on the 12th day (Day 12) using an anti-Corin antibody.

In assay [3] the test system is model rat of Parkinson's disease (6-OHDA uni-laterally administered rat). Kind of assay: Cell transplantation into striatum of Parkinson's disease model rat, graft staining with TH and HuNu after 4 weeks. It is filed as in vivo. The settings on record: for TH-ratio with respect to HuNu-positive cells as 100%: graft of cells cultured in the presence of SAG (300 nM). How it is done: In this case, the medium was replaced in half every 3 days.
A plurality of cell aggregates containing 4×10^5 cells obtained as described above were suspended in 2 μL of physiological saline, and injected into the striatum of a model rat of Parkinson's disease (6-OHDA uni-laterally administered rat) using a 22 gauge injection needle, and the appearance of the graft after 4 weeks was observed (FIG. 5).

As for `Cc1cccc(-c2nn(C(=S)Nc3ccccc3)cc2-c2ccnc3ccccc23)n1` [A83-01, 3-(6-methyl-2-pyridinyl)-N-phenyl-4-(4-quinolinyl)-1H-pyrazole-1-carbothioamide], the “Corin-Positive Rate (%)” value in assay [1] (A83-01 (500 nM) alone) is on record as 12.4%. In assay [1], the “Corin-positive ratio as compared with the control” value (“Corin-positive ratio” below) is reported as “no effect”.

Consider `c1ccc2c(-c3cnn4cc(-c5ccc(N6CCNCC6)cc5)cnc34)ccnc2c1` [LDN193189], for which, in assay [1] (LDN193189 (100 nM) alone), the “Corin-Positive Rate (%)” value amounted to 12.6%. The “Corin-positive ratio” value in assay [1] is given as “no effect”.

Turning to `CNC1CCC(N(Cc2cccc(-c3ccncc3)c2)C(=O)c2sc3ccccc3c2Cl)CC1` (stereo not shown) [SAG], the “percentage of Corin-positive cells” value is reported as “increased” in assay [1] (SAG 300 nM for 24 hours before differentiation induction vs absence of SAG, FIG. 2) and “increased” in assay [2]. In addition, the “Corin-Positive Rate (%)” value in assay [1] (SAG (10 nM) added to medium for maintaining undifferentiated state before differentiation induction) was 22.7%; in assay [1] (SAG (300 nM)), 32.1%. Further, in assay [1], the “Corin-positive ratio” value was “improves depending on the concentration of SAG added”. For the same compound, in assay [3] (4 weeks after grafting), the “ratio of the number of TH-positive cells to the number of HuNu-positive cells, SAG-treated cell graft vs non-treated cell graft” value is “no difference”. The “TH-ratio with respect to HuNu-positive cells as 100%” value in assay [3] (4 weeks) came out at 6.1%; in assay [3] (4 weeks after grafting, average), 9.24%; in assay [3] (4 weeks, individual (2)) it was 12.37%.

(Values after patent US12516286B2, “Method for producing dopaminergic neuron progenitor cell” (KYOTO UNIVERSITY, priority 2016, dated 2026).)
